ChEMBL document CHEMBL5226299, “Targeting Lysosomal Degradation Pathways: New Strategies and Techniques for Drug Discovery” (J Med Chem, 2021)

Molecular target: Methionine aminopeptidase 2 (Homo sapiens) (UniProt P50579)
Test: Induction of MetAP-2 degradation in human HeLa cells at 10 uM relative to control
Assay type: cell-based

Sequence of Methionine aminopeptidase 2 (Homo sapiens) (P50579 2-478 limits assumed): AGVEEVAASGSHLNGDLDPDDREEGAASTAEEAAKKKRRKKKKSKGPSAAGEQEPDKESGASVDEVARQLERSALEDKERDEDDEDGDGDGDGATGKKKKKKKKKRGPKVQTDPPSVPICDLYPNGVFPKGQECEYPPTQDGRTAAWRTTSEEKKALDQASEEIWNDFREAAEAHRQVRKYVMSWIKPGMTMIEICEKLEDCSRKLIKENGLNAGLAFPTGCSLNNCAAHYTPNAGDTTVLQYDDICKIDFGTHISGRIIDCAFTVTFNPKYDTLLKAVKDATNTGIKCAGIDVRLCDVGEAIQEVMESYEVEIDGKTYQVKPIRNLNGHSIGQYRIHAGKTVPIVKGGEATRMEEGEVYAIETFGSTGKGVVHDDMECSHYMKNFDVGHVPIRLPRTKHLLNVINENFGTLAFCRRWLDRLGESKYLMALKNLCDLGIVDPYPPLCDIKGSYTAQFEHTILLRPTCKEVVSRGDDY

Activity: 80%
SMILES: CO[C@@H]1[C@H](OC(=O)NCCCOCCOCCOCCCNC(=O)[C@H](CSc2nc3c(=O)[nH]c(N)nc3n2Cc2ccc(F)cc2)NC(C)=O)CC[C@]2(CO2)[C@H]1[C@@]1(C)O[C@@H]1CC=C(C)C
